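Dose response: 5 concentrations. Exposure: 48 h. Format: 96-well plates. Endpoint: linear interpolation; highest concentration if not reached. TGI: concentration producing complete growth inhibition.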
How the values were obtained:
Assay in all cases: growth of human tumour cells (NCI), 48 h
HCC-2998 colon = tested on: HCC-2998 colon
NCI-H23 lung = tested on: NCI-H23 lung
COLO 205 colon = tested on: COLO 205 colon
UO-31 renal = tested on: UO-31 renal
SF-539 CNS = tested on: SF-539 CNS
UACC-257 melanoma = tested on: UACC-257 melanoma
OVCAR-4 ovarian = tested on: OVCAR-4 ovarian
HT29 colon = tested on: HT29 colon
786-0 renal = tested on: 786-0 renal
HOP-92 NSCLC = tested on: HOP-92 NSCLC

Row | Compound | TGI (HCC-2998 colon) [µM] | TGI (NCI-H23 lung) [µM] | TGI (COLO 205 colon) [µM] | TGI (UO-31 renal) [µM] | TGI (SF-539 CNS) [µM] | TGI (UACC-257 melanoma) [µM] | TGI (OVCAR-4 ovarian) [µM] | TGI (HT29 colon) [µM] | TGI (786-0 renal) [µM] | TGI (HOP-92 NSCLC) [µM]
1 | CCOC(=O)C(Cc1ccc(OC(=O)OC(C)(C)C)cc1)NC(=O)OC(C)(C)C (stereo unspecified) | 76.6 | > 100 | > 100 | > 100 | > 100 | 54.3 | > 100 | > 100 | > 100 | –
2 | C=C1C(=O)O[C@@H]2[C@H](O)[C@@H](C)[C@@H]3C=CC(=O)[C@@]3(C)[C@@H](OC(=O)/C(C)=C/C)[C@H]12 | 4.19 | 2.57 | 1.11 | 10.1 | 1.96 | 1.87 | 3.05 | 4.15 | – | 1.78
3 | Cc1oc2c(c1C)S(=O)(=O)C(C#N)=C(N(C)C)N2 | > 100 | > 100 | – | > 100 | > 100 | > 100 | > 100 | > 100 | > 100 | > 100
4 | Cc1cccc(N2C(=O)C3c4[nH]c5ccccc5c4C4CCC(C(C)(C)C)CC4C3C2=O)c1 (stereo unspecified) | – | 30.1 | 24.2 | 28.6 | – | 44.6 | 25.7 | 28.9 | 12.2 | –
5 | N=c1c2c(=S)n(-c3ccccc3)c(=S)n(-c3ccccc3)c2nc(SCCN2CCCC2)n1-c1ccccc1 | 2.78 | 9.2 | 3.17 | – | 9.71 | 3.06 | 7.58 | 3.6 | 2 | 3.48
6 | Cc1ccc(C(=O)Nc2ccc(CP(=O)(O)O)cc2CP(=O)(O)O)cc1NC(=O)Nc1cc(C(=O)Nc2ccc(CP(=O)(O)O)cc2CP(=O)(O)O)ccc1C | > 100 | > 100 | > 100 | > 100 | > 100 | > 100 | > 100 | > 100 | > 100 | –
7 | CC(C)=CCc1[nH]c2ccccc2c1C1=C(O)C(=O)C(c2c(CC=C(C)C)[nH]c3ccccc23)=C(O)C1=O | 3.29 | 5.87 | 3.07 | 3.14 | – | 6.95 | 93.1 | 6.34 | 10.2 | 4.04
8 | CC(C)(C)OC(=O)CN1CCNCCN(CC(=O)OC(C)(C)C)CCNCC1 | > 100 | – | > 100 | > 100 | > 100 | > 100 | > 100 | > 100 | > 100 | > 100
9 | COC(=O)c1c(C#N)c(N)nc2c1CCC2 | > 100 | > 100 | > 100 | > 100 | – | > 100 | > 100 | > 100 | > 100 | > 100
10 | Cc1ccc(C2=C(C#N)C(N)OC3=C2COc2ccccc23)cc1 (stereo unspecified) | > 100 | > 100 | > 100 | 33.7 | > 100 | > 100 | 40.7 | > 100 | – | > 100
11 | Cn1c(CO)ccc1-c1ccc(-c2ccc[se]2)[se]1 | > 47.7 | 50.7 | > 84.2 | > 100 | 31.7 | – | 39.5 | > 100 | > 71.2 | –

Source: PubChem BioAssay (NCI)
